Legend:
[1] = target: T1, Gonadotropin-releasing hormone receptor (Homo sapiens, UniProt P30968); assay: Inhibition of GnRH receptor
T1 sequence (P30968 whole entry): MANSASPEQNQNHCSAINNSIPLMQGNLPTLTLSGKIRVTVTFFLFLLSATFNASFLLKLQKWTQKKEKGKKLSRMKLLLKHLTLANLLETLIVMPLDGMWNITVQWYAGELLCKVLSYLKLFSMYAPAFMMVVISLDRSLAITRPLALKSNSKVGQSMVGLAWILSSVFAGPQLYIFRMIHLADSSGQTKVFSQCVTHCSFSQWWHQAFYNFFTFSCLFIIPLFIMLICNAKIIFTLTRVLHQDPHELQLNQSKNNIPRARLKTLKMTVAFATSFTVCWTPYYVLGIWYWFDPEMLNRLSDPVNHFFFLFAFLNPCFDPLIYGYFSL

[2] = target: T2, Gonadotropin-releasing hormone receptor (Homo sapiens) (UniProt P30968); assay: Inhibition of GnRH receptor at 10 uM
T2 sequence (whole entry): T1 sequence (P30968 whole entry)

SMILES | Ki [1] | inhibition [2]
COc1cccc(-c2c(C)n(Cc3c(F)cccc3F)c(=O)n(CC(C)NCc3nccs3)c2=O)c1F (stereo not drawn) | 6 nM | 
COc1ccc(CN2CC3CC(c4ccc(N(C)C)c5ccccc45)N4C(=O)N(CCN5CCOCC5)C(=O)C34C2)cc1NC(C)=O (stereo not drawn) | 21 nM | 
CC(C)CN(C)CCn1c(=O)c2c(n(Cc3c(F)cccc3F)c1=O)CCN(Cc1ccc(OC(F)(F)F)cc1)C2 | 2500 nM | 73%
Cc1cc(C)cc(-c2[nH]c3ccc(C(C)(C)C(=O)N4C5CCC4CC5)cc3c2C(C)CNCCCCc2ccnnc2)c1 (stereo not drawn) | 0.7 nM | 
Cc1ccc(CN2CCc3c(c(=O)n(CC4CCNCC4)c(=O)n3Cc3c(F)cccc3F)C2)c(C)c1 | 1900 nM | 72%
O=c1c2c(n(Cc3c(F)cccc3F)c(=O)n1CCN1CCc3ccccc3C1)CCN(CC1CCCC1)C2 |  | 16%
CC(CCN1CCc2c(c(=O)n(CCN3CCCCC3)c(=O)n2Cc2c(F)cccc2F)C1)CC(C)(C)C (stereo not drawn) | 4400 nM | 50%
CCOC(=O)c1cn(Cc2c(F)cccc2F)c2cc(-c3ccc(NC(=O)CC)cc3)c(CN(C)Cc3ccccc3)cc2c1=O | 50 nM | 
CNC(Cn1c(=O)c2c(n(Cc3c(F)cccc3F)c1=O)CCN(Cc1ccc(C)cc1C)C2)c1ccccc1 (stereo not drawn) | 50 nM | 100%
Cc1ccc(CN2CCc3c(c(=O)n(CC4NCCc5ccccc54)c(=O)n3Cc3c(F)cccc3F)C2)c(C)c1 (stereo not drawn) | 110 nM | 95%
NC(CC1CCCCC1)Cn1c(=O)c2c(n(Cc3c(F)cccc3F)c1=O)CCN(Cc1ccc(Cl)cc1)C2 (stereo not drawn) | 3200 nM | 66%
CC(C)CN(C)CCn1c(=O)c2c(n(CCOc3ccccc3)c1=O)CCN(CCCC(F)(F)F)C2 |  | 0%

Reference: ChEMBL document CHEMBL1144672, “The use of ligand-based de novo design for scaffold hopping and sidechain optimization: two case studies” (Bioorg Med Chem, 2008)
